System: biological contamination of microcapsule compositions
Experiment: Preservation of microcapsule compositions against biological contamination over time by conventional preservation agents
Details: agent used alone; one month or more

| Molecule | Prevention of biological contamination of microcapsule compositions over time |
| --- | --- |
| O=C(O)c1ccccc1 [benzoic acid] | unable, when used alone, to prevent the biological contamination of microcapsule compositions over time |
| p-hydroxybenzoic esters | unable, when used alone, to prevent the biological contamination of microcapsule compositions over time |

Reference: patent US20250387771A1, “COMPOSITION COMPRISING BIODEGRADABLE MICROCAPSULES” (priority 2022, published 2025)
